Laboratory results taken from publication PMC7753147, “High-throughput determination of protein affinities using unmodified peptide libraries in nanomolar scale” (iScience, 2020).

Legend:
gephE = experiment: µSPOT peptide microarray binding assay with recombinant gephE
native geph = experiment: µSPOT peptide microarray binding assay with native geph from mouse brain lysate
FL-geph = experiment: µSPOT peptide microarray binding assay with full-length geph; settings: µSPOT peptide microarray, GlyRβ full positional scan, intensity normalised to wild-type sequence DLRSNDFSIVGSLPR (=1)
[1] = µSPOT peptide microarray, GlyRβ full positional scan, recombinant gephE, intensity normalised to wild-type sequence DLRSNDFSIVGSLPR (=1)
[2] = µSPOT peptide microarray, GlyRβ full positional scan, native geph from mouse brain lysate, intensity normalised to wild-type sequence DLRSNDFSIVGSLPR (=1)
[3] = overlapping GABAAR α3 peptide library on µSPOT array, 20 nM gephE, normalized to most prominent spot, n = 2 array-internal duplicate
[4] = overlapping GABAAR α3 peptide library on µSPOT array, 6% mouse brain lysate, normalized to most prominent spot, n = 2 array-internal duplicate
[5] = overlapping GlyR β peptide library on µSPOT array, 50 nM gephE, anti-gephyrin 3B11/HRP chemiluminescence, normalized to most prominent spot, n = 2 array-internal duplicate
[6] = overlapping GlyR β peptide library on µSPOT array, 3% mouse brain lysate, normalized to most prominent spot, n = 2 array-internal duplicate

| gephE Binding Intensity [norm.] (gephE; [1]) | Native geph Binding Intensity [norm.] (native geph; [2]) | Fl-geph Binding Intensity [norm.] (FL-geph) | gephE Binding Intensity [norm.] (gephE; [3]) | Native geph Binding Intensity [norm.] (native geph; [4]) | gephE Binding Intensity [norm.] (gephE; [5]) | Native geph Binding Intensity [norm.] (native geph; [6]) | Sequence |
| --- | --- | --- | --- | --- | --- | --- | --- |
| 1.06 norm. | 0.77 norm. | 1.11 norm. | – | – | – | – | ALRSNDFSIVGSLPR [GlyRβ_Full_Positional_Scan_001] |
| 1.12 norm. | 0.99 norm. | 0.88 norm. | – | – | – | – | CLRSNDFSIVGSLPR [GlyRβ_Full_Positional_Scan_017] |
| 1.01 norm. | 0.95 norm. | 1.04 norm. | – | – | – | – | DARSNDFSIVGSLPR [GlyRβ_Full_Positional_Scan_021] |
| 0.95 norm. | 1.22 norm. | 0.9 norm. | – | – | – | – | DCRSNDFSIVGSLPR [GlyRβ_Full_Positional_Scan_037] |
| 1.07 norm. | 0.9 norm. | 1.26 norm. | – | – | – | – | DDRSNDFSIVGSLPR [GlyRβ_Full_Positional_Scan_030] |
| 0.98 norm. | 0.92 norm. | 1.01 norm. | – | – | – | – | DERSNDFSIVGSLPR [GlyRβ_Full_Positional_Scan_031] |
| 0.98 norm. | 0.91 norm. | 0.99 norm. | – | – | – | – | DFRSNDFSIVGSLPR [GlyRβ_Full_Positional_Scan_027] |
| 0.98 norm. | 0.92 norm. | 0.94 norm. | – | – | – | – | DGRSNDFSIVGSLPR [GlyRβ_Full_Positional_Scan_022] |
| 0.91 norm. | 0.98 norm. | 0.95 norm. | – | – | – | – | DHRSNDFSIVGSLPR [GlyRβ_Full_Positional_Scan_033] |
| 0.95 norm. | 1.16 norm. | 1.12 norm. | – | – | – | – | DIRSNDFSIVGSLPR [GlyRβ_Full_Positional_Scan_023] |
| 0.88 norm. | 0.53 norm. | 0.94 norm. | – | – | – | – | DKRSNDFSIVGSLPR [GlyRβ_Full_Positional_Scan_034] |
| 0.95 norm. | 1.3 norm. | 1.13 norm. | – | – | – | – | DLASNDFSIVGSLPR [GlyRβ_Full_Positional_Scan_041] |
| 0.88 norm. | 1.41 norm. | 1.14 norm. | – | – | – | – | DLCSNDFSIVGSLPR [GlyRβ_Full_Positional_Scan_057] |
| 1.09 norm. | 1.45 norm. | 1.38 norm. | – | – | – | – | DLDSNDFSIVGSLPR [GlyRβ_Full_Positional_Scan_050] |
| 1.03 norm. | 1.3 norm. | 1.39 norm. | – | – | – | – | DLESNDFSIVGSLPR [GlyRβ_Full_Positional_Scan_051] |
| 0.89 norm. | 1.18 norm. | 1.29 norm. | – | – | – | – | DLFSNDFSIVGSLPR [GlyRβ_Full_Positional_Scan_047] |
| 0.93 norm. | 1.26 norm. | 1.02 norm. | – | – | – | – | DLGSNDFSIVGSLPR [GlyRβ_Full_Positional_Scan_042] |
| 1.01 norm. | 1.37 norm. | 1.21 norm. | – | – | – | – | DLHSNDFSIVGSLPR [GlyRβ_Full_Positional_Scan_053] |
| 0.9 norm. | 1.69 norm. | 1.35 norm. | – | – | – | – | DLISNDFSIVGSLPR [GlyRβ_Full_Positional_Scan_043] |
| 1.01 norm. | 1.21 norm. | 1.24 norm. | – | – | – | – | DLKSNDFSIVGSLPR [GlyRβ_Full_Positional_Scan_054] |
| 0.95 norm. | 1.48 norm. | 1.28 norm. | – | – | – | – | DLLSNDFSIVGSLPR [GlyRβ_Full_Positional_Scan_044] |
| 0.77 norm. | 1.59 norm. | 1.3 norm. | – | – | – | – | DLMSNDFSIVGSLPR [GlyRβ_Full_Positional_Scan_058] |
| 0.85 norm. | 1.28 norm. | 1.17 norm. | – | – | – | – | DLNSNDFSIVGSLPR [GlyRβ_Full_Positional_Scan_059] |
| 0.93 norm. | 1.5 norm. | 1.47 norm. | – | – | – | – | DLPSNDFSIVGSLPR [GlyRβ_Full_Positional_Scan_045] |

| gephE Binding Intensity [norm.] (gephE; [1]) | Native geph Binding Intensity [norm.] (native geph; [2]) | Fl-geph Binding Intensity [norm.] (FL-geph) | gephE Binding Intensity [norm.] (gephE; [3]) | Native geph Binding Intensity [norm.] (native geph; [4]) | gephE Binding Intensity [norm.] (gephE; [5]) | Native geph Binding Intensity [norm.] (native geph; [6]) | Sequence |
| --- | --- | --- | --- | --- | --- | --- | --- |
| 0.91 norm. | 1.3 norm. | 1.06 norm. | – | – | – | – | DLQSNDFSIVGSLPR [GlyRβ_Full_Positional_Scan_060] |
| 0.98 norm. | 1.12 norm. | 0.86 norm. | – | – | – | – | DLRANDFSIVGSLPR [GlyRβ_Full_Positional_Scan_061] |
| 0.99 norm. | 0.77 norm. | 0.65 norm. | – | – | – | – | DLRCNDFSIVGSLPR [GlyRβ_Full_Positional_Scan_077] |
| 0.95 norm. | 1.34 norm. | 1.09 norm. | – | – | – | – | DLRDNDFSIVGSLPR [GlyRβ_Full_Positional_Scan_070] |
| 0.93 norm. | 1.11 norm. | 0.97 norm. | – | – | – | – | DLRENDFSIVGSLPR [GlyRβ_Full_Positional_Scan_071] |
| 0.92 norm. | 0.98 norm. | 0.92 norm. | – | – | – | – | DLRFNDFSIVGSLPR [GlyRβ_Full_Positional_Scan_067] |
| 0.99 norm. | 1.16 norm. | 0.88 norm. | – | – | – | – | DLRGNDFSIVGSLPR [GlyRβ_Full_Positional_Scan_062] |
| 0.92 norm. | 0.86 norm. | 0.84 norm. | – | – | – | – | DLRHNDFSIVGSLPR [GlyRβ_Full_Positional_Scan_073] |
| – | – | – | 0.018 norm. | 0.060 norm. | – | – | TAIASPKATYVQDSPAETKT [GABAAR α3 residues 429-448, µSpot library] |
| – | – | – | 0.024 norm. | 0.116 norm. | – | – | TISKSAAAPSASSTPTAIAS [GABAAR α3 residues 414-433, µSpot library] |
| – | – | – | 0.049 norm. | 0.033 norm. | – | – | TKRSWAWEGKKVPEALEMKK |
| – | – | – | – | – | 0.016 norm. | 0.054 norm. | TLQVGETRCKKVCTSKSDLR [Glycine receptor subunit beta_017, GlyR β residues 397-416] |
| – | – | – | 0.948 norm. | 1.000 norm. | – | – | TPAAPTKKNTTFNIVGTTYP [GABAAR α3 residues 384-403, µSpot library] |
| – | – | – | – | – | 0.013 norm. | 0.060 norm. | TPVHISTLQVGETRCKKVCT [Glycine receptor subunit beta_015, GlyR β residues 391-410] |
| – | – | – | – | – | 0.033 norm. | 0.089 norm. | TRCKKVCTSKSDLRSNDFSI [Glycine receptor subunit beta_019, GlyR β residues 403-422] |
| – | – | – | 0.457 norm. | 0.538 norm. | – | – | TTFNIVGTTYPINLAKDTEF [GABAAR α3 residues 393-412, µSpot library] |
| – | – | – | – | – | 0.008 norm. | 0.087 norm. | TVNGTGTPVHISTLQVGETR [Glycine receptor subunit beta_013] |
| – | – | – | – | – | 0.011 norm. | 0.074 norm. | VGETRCKKVCTSKSDLRSND [Glycine receptor subunit beta_018, GlyR β residues 400-419] |
| – | – | – | – | – | 0.010 norm. | 0.082 norm. | VMLNNPKRVEAEKARIAKAE [Glycine receptor subunit beta_002, GlyR β residues 352-371] |
| – | – | – | – | – | 0.017 norm. | 0.081 norm. | VVQVMLNNPKRVEAEKARIA [Glycine receptor subunit beta_001, GlyR β residues 349-368] |
| – | – | – | 0.048 norm. | 0.105 norm. | – | – | WEGKKVPEALEMKKKTPAAP [GABAAR α3 residues 369-388, µSpot library] |
| – | – | – | 0.039 norm. | 0.114 norm. | – | – | YPINLAKDTEFSTISKSAAA [GABAAR α3 residues 402-421, µSpot library] |
| – | – | – | 0.073 norm. | 0.058 norm. | – | – | YVQDSPAETKTYNSVSKVDK [GABAAR α3 residues 438-457, µSpot library] |
